Values of other authors in patent US20070292887A1, “Immunohistochemical Methods” (Bayer Pharmaceuticals Corporation, priority 2003, published 2007).
Read-outs that look alike come from different tables or passages of the source.

Key:
[1] = test system: SKOV (human ovarian cancer) cells; details: preincubation of SKOV cells
[2] = test system: SKOV3 xenografts; details: SKOV3 xenografts in mice
[3] = test system: human cancer cell lines; details: in vitro
[4] = test system: MDA-MB-231 xenografts; details: MDA-MB-231 xenografts in mice
[5] = test system: human cancer cell lines; details: in vivo
[6] = test system: keratinocytes (normal skin); details: biopsies of normal skin prior to and following administration, humans

expression of Ki-67 in keratinocytes [6]: decreased expression
Structure (SMILES): COc1cc2ncnc(Nc3ccc(F)c(Cl)c3)c2cc1OCCCN1CCOCC1 [ZD1839]
EGF-induced increases in activation of ERK MAP kinases [1]: block
EGF-induced increases in activation of PKB/Akt [1]: block
constitutive ERK MAP kinase activation [2]: inhibition
tumor growth rates [2]: reductions in tumor growth rates
proliferation of human cancer cell lines [3]: inhibited the proliferation
constitutive ERK MAP kinase activation [4]: inhibition
tumor growth rates [4]: reductions in tumor growth rates
proliferation of human cancer cell lines [5]: inhibited the proliferation
expression of activated MAPK in keratinocytes [6]: decreased expression
